pKi: −log10 of the molar value. Each block holds one compound with its values, some of them ahead of it.
Key:
Homo sapiens = species on record: Homo sapiens; assay: Selectivity index, ratio of Ki for human MAO-A to Ki for human MAO-B
[1] = biological target: T1, Amine oxidase [flavin-containing] A (Homo sapiens, UniProt P21397)
T1 sequence (P21397 whole entry): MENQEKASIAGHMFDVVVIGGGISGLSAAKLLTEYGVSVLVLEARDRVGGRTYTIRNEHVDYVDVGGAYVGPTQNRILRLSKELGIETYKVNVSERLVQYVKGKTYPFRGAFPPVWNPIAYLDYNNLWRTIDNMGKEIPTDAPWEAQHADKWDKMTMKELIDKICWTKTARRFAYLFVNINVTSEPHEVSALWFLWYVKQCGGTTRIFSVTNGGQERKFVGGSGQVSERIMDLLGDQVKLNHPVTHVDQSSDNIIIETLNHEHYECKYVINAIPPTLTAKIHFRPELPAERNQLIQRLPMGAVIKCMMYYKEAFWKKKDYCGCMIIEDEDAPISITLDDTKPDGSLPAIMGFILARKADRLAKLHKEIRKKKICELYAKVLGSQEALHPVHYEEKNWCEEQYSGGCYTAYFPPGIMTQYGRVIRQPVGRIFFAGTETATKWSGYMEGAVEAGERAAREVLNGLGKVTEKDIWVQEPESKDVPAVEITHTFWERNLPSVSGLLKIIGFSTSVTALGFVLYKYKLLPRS

[2] = biological target: T2, Amine oxidase [flavin-containing] B (Homo sapiens, UniProt P27338)
T2 sequence (P27338 whole entry): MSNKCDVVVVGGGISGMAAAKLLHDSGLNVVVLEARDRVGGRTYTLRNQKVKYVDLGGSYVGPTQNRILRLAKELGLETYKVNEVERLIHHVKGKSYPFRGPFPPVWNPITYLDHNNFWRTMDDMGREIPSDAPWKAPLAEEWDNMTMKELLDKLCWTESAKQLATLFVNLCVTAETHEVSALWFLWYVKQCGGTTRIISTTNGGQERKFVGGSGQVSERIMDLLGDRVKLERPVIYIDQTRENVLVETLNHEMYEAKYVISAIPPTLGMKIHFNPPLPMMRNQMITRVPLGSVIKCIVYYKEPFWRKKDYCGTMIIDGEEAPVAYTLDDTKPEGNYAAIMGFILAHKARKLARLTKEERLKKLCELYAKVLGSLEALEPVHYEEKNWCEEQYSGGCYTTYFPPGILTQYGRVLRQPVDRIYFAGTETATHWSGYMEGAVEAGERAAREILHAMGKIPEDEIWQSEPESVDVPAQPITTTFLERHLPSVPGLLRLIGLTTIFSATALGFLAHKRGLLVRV

Mus musculus [3] = species on record: Mus musculus; assay: Antidepressant activity in mouse assessed as […] by tail suspension test; type: functional
Mus musculus [4] = species on record: Mus musculus; assay: Antidepressant activity in mouse assessed as […] by forced swimming test; type: functional
Ca9-22 = assay: Cytotoxicity against human Ca9-22 cells assessed as reduction in cell viability incubated for 48 hrs by MTT assay; type: functional
HSC-2 = assay: Cytotoxicity against human HSC-2 cells assessed as reduction in cell viability incubated for 48 hrs by MTT assay; type: functional
HSC-3 = assay: Cytotoxicity against human HSC-3 cells assessed as reduction in cell viability incubated for 48 hrs by MTT assay; type: functional
[5] = Cytotoxicity against human HGF cells assessed as reduction in cell viability incubated for 48 hrs by MTT assay; type: functional
[6] = Cytotoxicity against human HPLF cells assessed as reduction in cell viability incubated for 48 hrs by MTT assay; type: functional
[7] = Cytotoxicity against human HPC cells assessed as reduction in cell viability incubated for 48 hrs by MTT assay; type: functional
Carbonic anhydrase 9 [8] = biological target: T3, Carbonic anhydrase 9 (Homo sapiens, UniProt Q16790); assay: Inhibition of human CA9 preincubated for 15 mins by phenol red dye based stopped flow CO2 hydration assay
Carbonic anhydrase 12 = Carbonic anhydrase 12 (Homo sapiens, UniProt O43570); assay: Inhibition of human CA12 preincubated for 15 mins by phenol red dye based stopped flow CO2 hydration assay
Carbonic anhydrase 12, sequence (O43570 whole entry): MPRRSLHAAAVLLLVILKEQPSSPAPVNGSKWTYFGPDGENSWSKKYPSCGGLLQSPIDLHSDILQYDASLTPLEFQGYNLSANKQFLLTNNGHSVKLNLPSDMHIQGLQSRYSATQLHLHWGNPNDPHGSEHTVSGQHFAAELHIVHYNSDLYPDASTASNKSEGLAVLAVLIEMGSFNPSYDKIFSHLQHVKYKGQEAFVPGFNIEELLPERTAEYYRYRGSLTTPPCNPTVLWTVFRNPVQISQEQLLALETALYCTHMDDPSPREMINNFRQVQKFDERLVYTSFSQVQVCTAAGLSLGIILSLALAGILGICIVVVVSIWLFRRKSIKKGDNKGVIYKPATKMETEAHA

Mus musculus [9] = species on record: Mus musculus; assay: Antidepressant activity in Swiss albino mouse assessed as decrease in immobility time by forced swimming test; type: functional; note: test concentration or dose not given here
Mus musculus [10] = species on record: Mus musculus; assay: Antidepressant activity in Swiss albino mouse assessed as decrease in immobility time by tail suspension test; type: functional; note: test concentration or dose not given here
Carbonic anhydrase 1 = Carbonic anhydrase 1 (Homo sapiens, UniProt P00915); assay: Inhibition of human recombinant CA1
Carbonic anhydrase 1, sequence (P00915 whole entry): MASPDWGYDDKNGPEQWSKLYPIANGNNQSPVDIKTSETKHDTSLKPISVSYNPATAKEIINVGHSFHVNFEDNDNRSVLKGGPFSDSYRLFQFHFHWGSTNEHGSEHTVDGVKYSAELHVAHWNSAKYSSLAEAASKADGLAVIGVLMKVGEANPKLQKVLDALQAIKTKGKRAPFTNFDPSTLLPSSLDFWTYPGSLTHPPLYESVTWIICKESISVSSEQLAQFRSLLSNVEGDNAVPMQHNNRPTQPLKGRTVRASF

Carbonic anhydrase 2 = Carbonic anhydrase 2 (Homo sapiens, UniProt P00918); assay: Inhibition of human recombinant CA2
Carbonic anhydrase 4 = Carbonic anhydrase 4 (Homo sapiens, UniProt P22748); assay: Inhibition of human recombinant CA4
Carbonic anhydrase 4, sequence (P22748 whole entry): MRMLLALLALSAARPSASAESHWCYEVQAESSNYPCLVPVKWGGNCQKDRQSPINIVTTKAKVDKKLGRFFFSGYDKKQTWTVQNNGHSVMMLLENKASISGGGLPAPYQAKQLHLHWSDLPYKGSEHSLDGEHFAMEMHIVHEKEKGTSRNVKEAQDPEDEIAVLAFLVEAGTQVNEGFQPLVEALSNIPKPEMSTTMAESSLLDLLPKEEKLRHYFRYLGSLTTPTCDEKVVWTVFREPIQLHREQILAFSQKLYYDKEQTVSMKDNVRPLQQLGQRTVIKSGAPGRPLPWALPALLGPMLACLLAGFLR

Carbonic anhydrase 9 [11] = biological target: T3, Carbonic anhydrase 9

- Ratio Ki (Homo sapiens): 0.000464
- pKi [1]: 10.00
- pKi [2]: 6.70
SMILES: COc1ccc(C2=NN(C(=S)Nc3ccccc3)C(c3ccc(F)cc3)C2)cc1 (stereo not drawn)

SMILES: c1coc(C2CC(c3cccc4ccccc34)=NN2)c1 (stereo not drawn)
- Time (Mus musculus [3]): 21.17 s
- Time (Mus musculus [4]): 21.17 s

- pKi [1]: 10.00
- pKi [2]: 6.70
SMILES: C=CCNC(=S)N1N=C(c2ccc(OC)cc2)CC1c1ccc(F)cc1 (stereo not drawn)

- pKi (Carbonic anhydrase 9 [8]): 7.27
- pKi (Carbonic anhydrase 12): 8.21
SMILES: NS(=O)(=O)c1ccc(N2N=C(c3ccc(O)cc3)CC2c2ccc(Br)cc2)cc1 (stereo not drawn)
- CC50 (Ca9-22): 39.3 µM
- CC50 (HSC-2): 39.3 µM
- CC50 (HSC-3): 39.3 µM
- CC50 [5]: 39.3 µM
- CC50 [6]: 39.3 µM
- CC50 [7]: 39.3 µM

SMILES: Cc1nc(-c2cccc(Cl)c2Cl)ccc1C1=NNC(c2cc(F)cc(F)c2)C1 (stereo not drawn)
- Time (Mus musculus [9]): 66.67 s
- Time (Mus musculus [10]): 70.33 s

- Ratio Ki (Homo sapiens): 0.000464
- pKi [1]: 10.00
- pKi [2]: 6.70
SMILES: Fc1ccc(C2CC(c3ccccc3)=NN2C(=S)Nc2ccccc2)cc1 (stereo not drawn)

SMILES: Clc1ccc(C2=NNC(c3ccco3)C2)cc1 (stereo not drawn)
- Time (Mus musculus [3]): 21.17 s
- Time (Mus musculus [4]): 21.17 s

- Ratio Ki (Homo sapiens): 0.000464
- pKi [1]: 10.00
- pKi [2]: 6.70
SMILES: CNC(=S)N1N=C(c2ccc(Cl)cc2)CC1c1ccc(F)cc1 (stereo not drawn)

SMILES: Oc1ccc(C2=NNC(c3ccco3)C2)cc1 (stereo not drawn)
- Time (Mus musculus [3]): 21.17 s
- Time (Mus musculus [4]): 21.17 s

- pKi (Carbonic anhydrase 1): 5.61
- pKi (Carbonic anhydrase 2): 9.40
- pKi (Carbonic anhydrase 4): 7.75
- pKi (Carbonic anhydrase 9 [11]): 7.83
SMILES: CC(=O)N1N=C(c2ccc(OS(N)(=O)=O)cc2)CC1c1ccccc1 (stereo not drawn)

SMILES: Cc1nc(-c2ccc(F)cc2)ccc1C1=NNC(c2cc(F)cc(F)c2)C1 (stereo not drawn)
- Time (Mus musculus [9]): 66.67 s
- Time (Mus musculus [10]): 70.33 s

SMILES: Clc1ccc(C2=NNC(c3ccc(Cl)cc3)C2)cc1 (stereo not drawn)
- Time (Mus musculus [3]): 21.17 s
- Time (Mus musculus [4]): 21.17 s

- Ratio Ki (Homo sapiens): 0.000464
- pKi [1]: 10.00
- pKi [2]: 6.70
SMILES: Fc1ccc(C2CC(c3ccc(Cl)cc3)=NN2C(=S)Nc2ccccc2)cc1 (stereo not drawn)

- pKi (Carbonic anhydrase 1): 5.61
- pKi (Carbonic anhydrase 2): 9.40
- pKi (Carbonic anhydrase 4): 7.75
- pKi (Carbonic anhydrase 9 [11]): 7.83
SMILES: CC(=O)N1N=C(c2ccc(F)cc2)CC1c1cccc(OS(N)(=O)=O)c1 (stereo not drawn)

SMILES: c1ccc(C2=NNC(c3cccs3)C2)nc1 (stereo not drawn)
- Time (Mus musculus [3]): 21.17 s
- Time (Mus musculus [4]): 21.17 s

SMILES: Cc1ccc(C2CC(c3ccc(O)cc3)=NN2c2ccc(S(N)(=O)=O)cc2)cc1 (stereo not drawn)
- CC50 (Ca9-22): 39.3 µM
- CC50 (HSC-2): 39.3 µM
- CC50 (HSC-3): 39.3 µM
- CC50 [5]: 39.3 µM
- CC50 [6]: 39.3 µM
- CC50 [7]: 39.3 µM

- Ratio Ki (Homo sapiens): 0.000464
- pKi [1]: 10.00
- pKi [2]: 6.70
SMILES: CNC(=S)N1N=C(c2ccccc2)CC1c1ccc(F)cc1 (stereo not drawn)

SMILES: Cc1nc(-c2cccc(Cl)c2Cl)ccc1C1=NNC(c2ccc(Br)cc2)C1 (stereo not drawn)
- Time (Mus musculus [9]): 66.67 s
- Time (Mus musculus [10]): 70.33 s

SMILES: Cc1nc(-c2ccc(Br)cc2)ccc1C1=NNC(c2ccc(Br)cc2)C1 (stereo not drawn)
- Time (Mus musculus [9]): 66.67 s
- Time (Mus musculus [10]): 70.33 s

SMILES: Cc1nc(-c2ccc(Br)cc2)ccc1C1=NNC(c2cc(F)cc(F)c2)C1 (stereo not drawn)
- Time (Mus musculus [9]): 66.67 s
- Time (Mus musculus [10]): 70.33 s

- pKi (Carbonic anhydrase 1): 5.61
- pKi (Carbonic anhydrase 2): 9.40
- pKi (Carbonic anhydrase 4): 7.75
- pKi (Carbonic anhydrase 9 [11]): 7.83
SMILES: CC(=O)N1N=C(c2ccc(OS(N)(=O)=O)cc2)CC1c1cc(Cl)ccc1Cl (stereo not drawn)

- Ratio Ki (Homo sapiens): 0.000464
- pKi [1]: 10.00
- pKi [2]: 6.70
SMILES: CNC(=S)N1N=C(c2ccc(OC)cc2)CC1c1ccc(F)cc1 (stereo not drawn)

- pKi (Carbonic anhydrase 1): 5.61
- pKi (Carbonic anhydrase 2): 9.40
- pKi (Carbonic anhydrase 4): 7.75
- pKi (Carbonic anhydrase 9 [11]): 7.83
SMILES: COc1ccc(C2=NN(C(C)=O)C(c3ccc(OS(N)(=O)=O)cc3)C2)cc1 (stereo not drawn)

- Ratio Ki (Homo sapiens): 0.000464
- pKi [1]: 10.00
- pKi [2]: 6.70
SMILES: CCNC(=S)N1N=C(c2ccc(OC)cc2)CC1c1ccc(F)cc1 (stereo not drawn)
